Laboratory results taken from paper PMC12655172, “Borylated 5-Membered Ring Iminosugars: Synthesis and Biological Evaluation for Glycosidase Inhibition and Anticancer Properties for Application in Boron Neutron Capture Therapy (BNCT)—Part 2” (Pharmaceuticals, 2025).

Columns and labels:
[1] = test system: T1, trehalase (porcine kidney); assay: Glycosidase inhibition (Table 2 panel); assay type: biochemical
T1 construct: purchased Sigma-Aldrich; host or cells: porcine kidney
From the text: (§1) The enzymes α-D-glucosidase (yeast), β-D-glucosidases (almond, bovine liver), α-D-galactosidase (coffee beans), β-D-galactosidase (bovine liver), α-D-mannosidase (Jack bean), β-D-mannosidase (snail), α-L-rhamnosidase (P. decumbens), α-L-fucosidase (bovine kidney), trehalase (porcine kidney), β-D-glucuronidases (E. coli, bovine liver), amyloglucosidase (A. niger), para-nitrophenyl glycosides, and various disaccharides were purchased from Sigma-Aldrich Co (St. Louis, MO, USA).
(§2) Brush border membranes were prepared from the rat small intestine according to the method of Kessler et al., and were assayed at pH 6.8 for rat intestinal maltase using maltose. For rat intestinal maltase, porcine kidney trehalase, and A. niger amyloglucosidase activities, the reaction mixture contained maltose ([…]) and the appropriate amount of enzyme, and the incubations were performed for 10–30 min at 37 °C. The reaction was stopped by heating at 100 °C for 3 min. After centrifugation (600 g; 10 min), the resulting reaction mixture was added to the Glucose CII-test Wako (Wako Pure Chemical Ind., Osaka, Japan). The absorbance at 505 nm was measured to determine the amount of the released D-glucose. Other glycosidase activities were determined using an appropriate para-nitrophenyl glycoside as substrate at the optimum pH of each enzyme. The reaction mixture contained the substrate ([…]) and the appropriate amount of enzyme. The reaction was stopped by the addition of Na2CO3 ([…]). The released para-nitrophenol was measured spectrometrically at 400 nm. All reactions were run in […].

[2] = test system: T2, α-D-galactosidase (coffee beans); assay: Glycosidase inhibition (Table 2 panel); assay type: biochemical
T2 construct: purchased Sigma-Aldrich; host or cells: coffee beans
From the text: as §1, §2

[3] = test system: α-D-glucosidase (human lysosome); assay: Glycosidase inhibition (Table 2 panel); assay type: biochemical; conditions: at 100 μM
From the text: as §1, §2

[4] = test system: α-D-glucosidase (rat intestinal maltase); assay: Glycosidase inhibition (Table 2 panel); assay type: biochemical
From the text: as §1, §2

α-D-glucosidase (rice) = α-D-glucosidase (rice) (Oryza sativa subsp. japonica, UniProt Q653V7); assay: Glycosidase inhibition (Table 2 panel); assay type: biochemical
Sequence of α-D-glucosidase (rice) (Q653V7 34-885): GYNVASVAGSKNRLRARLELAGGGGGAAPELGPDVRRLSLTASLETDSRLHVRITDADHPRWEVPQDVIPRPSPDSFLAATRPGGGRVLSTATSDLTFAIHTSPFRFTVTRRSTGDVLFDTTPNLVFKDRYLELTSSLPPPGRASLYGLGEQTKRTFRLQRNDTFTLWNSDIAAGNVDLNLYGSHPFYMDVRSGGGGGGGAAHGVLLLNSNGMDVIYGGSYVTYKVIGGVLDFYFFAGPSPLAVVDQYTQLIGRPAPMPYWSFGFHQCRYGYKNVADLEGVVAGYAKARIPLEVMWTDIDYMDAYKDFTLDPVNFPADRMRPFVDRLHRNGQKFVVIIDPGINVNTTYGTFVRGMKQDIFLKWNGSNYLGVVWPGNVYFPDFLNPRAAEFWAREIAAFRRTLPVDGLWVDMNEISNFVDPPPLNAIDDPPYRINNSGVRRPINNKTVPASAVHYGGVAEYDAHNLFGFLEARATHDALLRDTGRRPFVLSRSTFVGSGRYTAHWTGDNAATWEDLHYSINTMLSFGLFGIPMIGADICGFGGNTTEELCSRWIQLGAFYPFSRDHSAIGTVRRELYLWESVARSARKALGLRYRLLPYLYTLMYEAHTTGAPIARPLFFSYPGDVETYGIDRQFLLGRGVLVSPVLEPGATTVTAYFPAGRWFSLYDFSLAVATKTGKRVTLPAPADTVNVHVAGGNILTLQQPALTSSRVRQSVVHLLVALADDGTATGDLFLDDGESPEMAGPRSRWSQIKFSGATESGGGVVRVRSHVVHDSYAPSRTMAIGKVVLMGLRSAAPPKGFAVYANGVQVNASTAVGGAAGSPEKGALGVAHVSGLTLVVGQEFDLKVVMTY
From the text: as §1, §2

[5] = test system: T3, α-D-mannosidase (Jack bean); assay: Glycosidase inhibition (Table 2 panel); assay type: biochemical
T3 construct: purchased Sigma-Aldrich; host or cells: Jack bean
From the text: as §1, §2

[6] = test system: α-L-rhamnosidase (P. decumbens); assay: Glycosidase inhibition (Table 2 panel); assay type: biochemical
From the text: as §1, §2

[7] = target: T4, β-D-galactosidase (bovine liver) (Bos taurus, UniProt F1MNT6); assay: Glycosidase inhibition (Table 2 panel); assay type: biochemical
T4 sequence (F1MNT6 1-469): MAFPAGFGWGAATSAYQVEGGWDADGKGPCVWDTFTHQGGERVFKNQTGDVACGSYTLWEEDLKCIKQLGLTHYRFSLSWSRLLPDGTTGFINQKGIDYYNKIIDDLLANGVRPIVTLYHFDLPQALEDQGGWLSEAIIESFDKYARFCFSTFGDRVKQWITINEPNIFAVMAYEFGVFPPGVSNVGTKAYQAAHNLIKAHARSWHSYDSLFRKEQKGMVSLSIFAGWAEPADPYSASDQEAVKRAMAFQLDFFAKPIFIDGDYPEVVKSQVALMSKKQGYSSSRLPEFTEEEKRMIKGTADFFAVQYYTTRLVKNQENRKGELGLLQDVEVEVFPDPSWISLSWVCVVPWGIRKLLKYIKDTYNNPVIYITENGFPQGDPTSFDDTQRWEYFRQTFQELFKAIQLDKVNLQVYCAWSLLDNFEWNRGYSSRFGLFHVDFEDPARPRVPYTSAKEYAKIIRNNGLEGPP
From the text: as §1, §2

β-D-glucosidase (almond) = assay: Glycosidase inhibition (Table 2 panel); assay type: biochemical
From the text: as §1, §2

[8] = target: T5, β-D-glucosidase (bovine liver) (Bos taurus, UniProt F1MNT6); assay: Glycosidase inhibition (Table 2 panel); assay type: biochemical
T5 sequence (F1MNT6 1-469): T4 sequence (F1MNT6 1-469)
From the text: as §1, §2

[9] = test system: β-D-glucuronidase (bovine liver); assay: Glycosidase inhibition (Table 2 panel); assay type: biochemical
From the text: as §1, §2

β-D-mannosidase (snail) = assay: Glycosidase inhibition (Table 2 panel); assay type: biochemical
From the text: as §1, §2

[10] = test system: β-D-glucosidase (human lysosome); assay: Glycosidase inhibition (Table 2 panel); assay type: biochemical; conditions: at 100 μM
[11] = test system: β-D-galactosidase (E. coli); assay: Glycosidase inhibition (Table 2 panel); assay type: biochemical; conditions: at 100 μM
[12] = test system: β-D-glucanase (T. Longibrachiatum); assay: Glycosidase inhibition (Table 2 panel); assay type: biochemical; conditions: at 100 μM
[13] = test system: N-acetyl-β-D-hexosaminidase (rat intestine); assay: Glycosidase inhibition (Table 3 panel); assay type: biochemical; conditions: 1 mg/mL aqueous solution; run in water
Summary of the method: (§3)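 Enzymes tested at 27 °C in citric acid/disodium hydrogen phosphate buffer at each enzyme's optimum pH, with 1 mg/mL aqueous extract and […] para-nitrophenyl substrate. Reactions stopped with 0.4 M glycine (pH 10.4) within the exponential phase; absorbance read at 405 nm, triplicate means.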

[14] = test system: α-D-glucosidase (rat intestine); assay: Glycosidase inhibition (Table 3 panel); assay type: biochemical; conditions: 1 mg/mL aqueous solution; run in water
Summary of the method: as §3

[15] = test system: MCF10A (non-tumour derived normal breast cell line); assay: Cancer screening, MTT growth inhibition; assay type: cell-based; conditions: Homo sapiens, MCF-10A, 72 h; for inhibition at 25 µM: 25 µM of drug, read-out: DOSE SCREEN percentage (%) cell growth inhibition MCF10A Breast (normal); for GI50: read-out: DOSE RESPONSE GI50 MCF10A Breast (normal)
[16] = test system: glycosidases in the panel; assay: Glycosidase inhibition, whole Table 2 panel; assay type: biochemical
From the text: as §1, §2

[17] = test system: T6, α-L-fucosidase (bovine kidney); assay: Glycosidase inhibition (Table 2 panel); assay type: biochemical; conditions: at 1000 μM
T6 construct: purchased Sigma-Aldrich; host or cells: bovine kidney
From the text: as §1, §2

| Compound | inhibition % Trehalase Porcine Kidney ([1]; at 100 μM) | inhibition % α-D-Galactosidase Coffee Beans ([2]; at 100 μM) | inhibition % α-D-Glucosidase Human Lysosome [3] | inhibition % α-D-Glucosidase Rat Intestinal Maltase ([4]; at 100 μM) | inhibition at 100 µM (α-D-glucosidase (rice)) [%] | inhibition % α-D-Mannosidase Jack Bean ([5]; at 100 μM) | inhibition % α-L-Rhamnosidase P. decumbens ([6]; at 100 μM) | inhibition at 100 µM [7] [%] | inhibition % β-D-Glucosidase Almond (β-D-glucosidase (almond); at 100 μM) | inhibition at 100 µM [8] [%] | inhibition % β-D-Glucuronidase Bovine Liver ([9]; at 100 μM) | inhibition % β-D-Mannosidase Snail (β-D-mannosidase (snail); at 100 μM) | inhibition % β-D-Glucosidase Human Lysosome [10] | inhibition % β-D-Galactosidase E. coli [11] | inhibition % β-D-Glucanase T. Longibrachiatum [12] | Percentage inhibition N-Acetyl-β-D-Hexosaminidase Rat Intestine [13] [%] | Percentage inhibition α-D-Glucosidase Rat Intestine [14] [%] | inhibition at 25 µM [15] [%] | GI50 [15] [µM] | Inhibitory activity over the glycosidase panel, in words [16] | other results |
| --- | --- | --- | --- | --- | --- | --- | --- | --- | --- | --- | --- | --- | --- | --- | --- | --- | --- | --- | --- | --- | --- |
| CC1(C)O[C@H]2O[C@H]3[C@@H]([C@H]2O1)N(Cc1cccc(B(O)O)c1)C[C@H]3O [meta 5, N-(3-Methylphenylboronic acid)-3,6-dideoxy-3,6-imino-1,2-O-isopropylidene-α-D-glucofuranose] | ^cNI ^d(0%) | ^cNI ^d(1.5%) | ^cNI ^d(0.3%) | ^cNI ^d(0%) | 0 | ^cNI ^d(6.3%) | ^cNI ^d(0.6%) | 0 | ^cNI ^d(0%) | 23 | ^cNI ^d(2.9%) | ^cNI ^d(2.3%) | ^cNI ^d(0%) | ^cNI ^d(0%) | ^cNI ^d(0%) | 5 | 11.6 | 7 ± 4 | > 50 | abrogates inhibitory activity | – |
| CC1(C)O[C@H]2O[C@H]3[C@@H]([C@H]2O1)N(Cc1cccc(O)c1)C[C@H]3O [meta 6] | ^cNI ^d(0%) | ^cNI ^d(0%) | ^cNI ^d(3.3%) | ^cNI ^d(4.7%) | 0 | ^cNI ^d(9.5%) | ^cNI ^d(6.5%) | 15.5 | ^cNI ^d(6.3%) | 15.8 | ^cNI ^d(1.6%) | ^cNI ^d(0.6%) | ^cNI ^d(0%) | ^cNI ^d(0.8%) | ^cNI ^d(3.1%) | −0.7 | 4.8 | 4 ± 2 | > 50 | abrogates inhibitory activity | – |
| CC1(C)O[C@H]2O[C@H]3[C@@H]([C@H]2O1)N(Cc1ccccc1B1OC(C)(C)C(C)(C)O1)C[C@H]3O [ortho 2, N-(2-Methylphenylboronic acid pinacol ester)-3,6-dideoxy-3,6-imino-1,2-O-isopropylidene-α-D-gulofuranose] | ^cNI ^d(5.6%) | ^cNI ^d(0%) | ^cNI ^d(3.3%) | ^cNI ^d(15.5%) | 0 | ^cNI ^d(9.4%) | ^cNI ^d(1.5%) | – | ^cNI ^d(35%) | 4.9 | ^cNI ^d(2.2%) | ^cNI ^d(0%) | ^cNI ^d(5.6%) | ^cNI ^d(8.8%) | ^cNI ^d(21%) | 13.8 | −6.7 | 9 ± 4 | > 50 | – | inhibition % Trehalase Porcine Kidney ([1]; at 1000 μM): ^aNI ^b(1.8%); inhibition % α-D-Galactosidase Coffee Beans ([2]; at 1000 μM): ^aNI ^b(2.9%); inhibition % α-D-Glucosidase Rat Intestinal Maltase ([4]; at 1000 μM): ^aNI ^b(0%); inhibition at 1000 µM (α-D-glucosidase (rice); at 1000 μM): 0%; inhibition % α-D-Mannosidase Jack Bean ([5]; at 1000 μM): ^aNI ^b(1.3%); inhibition % α-L-Fucosidase Bovine Kidney [17]: ^aNI ^b(7.8%); inhibition % α-L-Rhamnosidase P. decumbens ([6]; at 1000 μM): ^aNI ^b(2.0%); inhibition at 1000 µM ([7]; at 1000 μM): 21.8%; inhibition % β-D-Glucosidase Almond (β-D-glucosidase (almond); at 1000 μM): ^aNI ^b(7.2%); inhibition at 1000 µM [8]: 19.7%; inhibition % β-D-Glucuronidase Bovine Liver ([9]; at 1000 μM): ^aNI ^b(8.4%); inhibition % β-D-Mannosidase Snail (β-D-mannosidase (snail); at 1000 μM): ^aNI ^b(7.8%) |
| OC[C@H](O)[C@@H]1[C@H](O)[C@H](O)CN1Cc1ccccc1B(O)O [ortho 4, N-(2-Methylphenylboronic acid)-1,4-dideoxy-1,4-imino-L-gulitol] | ^cNI ^d(0%) | ^cNI ^d(0%) | ^cNI ^d(2.2%) | ^cNI ^d(0%) | 0 | ^cNI ^d(5.6%) | ^cNI ^d(4.9%) | 3.3 | ^cNI ^d(2.6%) | 3.3 | ^cNI ^d(0%) | ^cNI ^d(5.3%) | ^cNI ^d(0%) | ^cNI ^d(14%) | ^cNI ^d(0%) | −0.2 | 17.4 | 8 ± 4 | > 50 | – | inhibition % Trehalase Porcine Kidney ([1]; at 1000 μM): ^aNI ^b(0%); inhibition % α-D-Galactosidase Coffee Beans ([2]; at 1000 μM): ^aNI ^b(2.7%); IC50 (α-D-glucosidase (rice); listed as of the 1000 μM series): 622 µM; inhibition % α-D-Mannosidase Jack Bean ([5]; at 1000 μM): ^aNI ^b(0.4%); inhibition % α-L-Fucosidase Bovine Kidney [17]: ^aNI ^b(1.3%); inhibition % α-L-Rhamnosidase P. decumbens ([6]; at 1000 μM): ^aNI ^b(9.5%); inhibition % β-D-Glucosidase Almond (β-D-glucosidase (almond); at 1000 μM): ^aNI ^b(40.1%); inhibition at 1000 µM [8]: 25.7%; inhibition % β-D-Glucuronidase Bovine Liver ([9]; at 1000 μM): ^aNI ^b(0.9%); inhibition % β-D-Mannosidase Snail (β-D-mannosidase (snail); at 1000 μM): ^aNI ^b(2.3%) |
| CC1(C)O[C@H]2O[C@H]3[C@@H]([C@H]2O1)N(Cc1ccccc1B(O)O)C[C@H]3O [ortho 5] | ^cNI ^d(4.9%) | ^cNI ^d(8.5%) | ^cNI ^d(0%) | ^cNI ^d(0%) | 6.7 | ^cNI ^d(12.9%) | ^cNI ^d(0%) | 6.1 | ^cNI ^d(2.7%) | 13.4 | ^cNI ^d(0%) | ^cNI ^d(7.0%) | ^cNI ^d(3.5%) | ^cNI ^d(0%) | ^cNI ^d(5.2%) | 5.2 | 4.2 | 7 ± 6 | > 50 | abrogates inhibitory activity | – |
